Measured values taken from US20100305098A1, “METHODS OF USE” (priority 2007, published 2010).

Legend:
[1] = target: T1, CYSLT1 (Homo sapiens, UniProt Q9Y271); assay: FLIPR functional screen; assay type: cell-based; details: antagonist mode
T1 construct: Millipore

[2] = target: T2, Y1 (Homo sapiens, UniProt P25929); assay: FLIPR functional screen; assay type: cell-based; details: antagonist mode
T2 construct: Millipore

[3] = target: T3, BB2 (Homo sapiens, UniProt P30550); assay: FLIPR functional screen; assay type: cell-based; details: antagonist mode
T3 construct: Millipore
T3 sequence (P30550 whole entry): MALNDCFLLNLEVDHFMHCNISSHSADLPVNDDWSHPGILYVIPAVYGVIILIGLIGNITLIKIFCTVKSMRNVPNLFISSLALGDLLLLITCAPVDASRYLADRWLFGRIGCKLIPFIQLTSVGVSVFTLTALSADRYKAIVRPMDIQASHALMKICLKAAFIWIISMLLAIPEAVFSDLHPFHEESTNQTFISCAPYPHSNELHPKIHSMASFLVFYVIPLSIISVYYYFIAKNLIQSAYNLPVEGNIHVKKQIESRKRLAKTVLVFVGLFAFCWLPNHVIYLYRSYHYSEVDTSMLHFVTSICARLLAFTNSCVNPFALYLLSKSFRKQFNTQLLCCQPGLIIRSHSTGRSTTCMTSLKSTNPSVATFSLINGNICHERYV

[4] = target: T4, Prostanoid EP2 (Homo sapiens, UniProt P43116); assay: Competitive radioligand binding (MDS Pharma)
T4 construct: purchased MDS Pharma (outsourced assay)
T4 sequence (P43116 whole entry): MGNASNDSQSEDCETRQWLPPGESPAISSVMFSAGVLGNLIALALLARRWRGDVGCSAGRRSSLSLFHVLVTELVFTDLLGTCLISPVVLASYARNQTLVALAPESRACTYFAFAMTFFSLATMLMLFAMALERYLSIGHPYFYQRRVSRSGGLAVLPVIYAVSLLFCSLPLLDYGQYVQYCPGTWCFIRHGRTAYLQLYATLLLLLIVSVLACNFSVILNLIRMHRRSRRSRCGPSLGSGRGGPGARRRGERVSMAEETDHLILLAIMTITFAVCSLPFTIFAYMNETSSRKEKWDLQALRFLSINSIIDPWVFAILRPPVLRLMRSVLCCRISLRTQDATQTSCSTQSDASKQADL

[5] = target: T5, ETA (Homo sapiens, UniProt P25101); assay: FLIPR functional screen; assay type: cell-based; details: antagonist mode
T5 construct: Millipore

[6] = target: T6, FP (Homo sapiens, UniProt P43088); assay: FLIPR functional screen; assay type: cell-based; details: antagonist mode
T6 construct: Millipore

[7] = target: T7, PAF (Homo sapiens, UniProt P25105); assay: FLIPR functional screen; assay type: cell-based; details: antagonist mode
T7 construct: Millipore

[8] = target: T8, BB1 (Homo sapiens, UniProt P28336); assay: FLIPR functional screen; assay type: cell-based; details: antagonist mode
T8 construct: Millipore
T8 sequence (P28336 whole entry): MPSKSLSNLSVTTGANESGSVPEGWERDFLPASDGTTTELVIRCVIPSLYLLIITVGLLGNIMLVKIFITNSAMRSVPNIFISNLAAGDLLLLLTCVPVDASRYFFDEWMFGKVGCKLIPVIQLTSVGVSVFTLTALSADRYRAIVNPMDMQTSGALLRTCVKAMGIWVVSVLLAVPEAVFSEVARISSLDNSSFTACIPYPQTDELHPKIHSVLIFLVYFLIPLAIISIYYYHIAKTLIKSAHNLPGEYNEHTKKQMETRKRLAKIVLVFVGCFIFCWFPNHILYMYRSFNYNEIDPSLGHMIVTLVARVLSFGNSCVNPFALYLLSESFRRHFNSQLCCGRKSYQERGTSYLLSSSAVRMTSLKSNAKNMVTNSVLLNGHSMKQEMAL

[9] = target: T9, Prostanoid, Thromboxane A2 (TP) (Homo sapiens, UniProt P21731); assay: Competitive radioligand binding (MDS Pharma)
T9 construct: purchased MDS Pharma (outsourced assay)
T9 sequence (P21731 whole entry): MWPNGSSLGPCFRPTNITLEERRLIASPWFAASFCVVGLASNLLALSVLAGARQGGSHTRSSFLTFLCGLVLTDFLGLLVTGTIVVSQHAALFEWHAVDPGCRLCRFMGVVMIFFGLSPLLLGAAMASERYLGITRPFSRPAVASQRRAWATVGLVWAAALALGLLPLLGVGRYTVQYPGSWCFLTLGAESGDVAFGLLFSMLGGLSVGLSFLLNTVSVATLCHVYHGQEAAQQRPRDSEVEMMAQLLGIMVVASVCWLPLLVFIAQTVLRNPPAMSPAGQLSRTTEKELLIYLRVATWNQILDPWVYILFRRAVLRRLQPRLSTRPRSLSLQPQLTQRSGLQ

[10] = target: T10, A1 (Homo sapiens, UniProt P30542); assay: FLIPR functional screen; assay type: cell-based; details: antagonist mode
T10 construct: purchased Millipore (outsourced screen)
T10 sequence (P30542 whole entry): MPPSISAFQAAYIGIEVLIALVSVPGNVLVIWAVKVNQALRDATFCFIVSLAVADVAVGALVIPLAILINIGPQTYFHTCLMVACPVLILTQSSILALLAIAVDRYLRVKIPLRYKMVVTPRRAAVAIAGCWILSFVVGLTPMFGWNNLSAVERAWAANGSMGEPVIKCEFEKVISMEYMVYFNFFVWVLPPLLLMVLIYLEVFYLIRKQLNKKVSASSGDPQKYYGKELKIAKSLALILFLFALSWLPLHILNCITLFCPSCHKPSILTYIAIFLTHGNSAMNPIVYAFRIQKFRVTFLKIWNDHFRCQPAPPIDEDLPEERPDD

[11] = target: T11, ADRA2A (Homo sapiens, UniProt P08913); assay: FLIPR functional screen; assay type: cell-based; details: antagonist mode
T11 construct: purchased Millipore (outsourced screen)

[12] = target: T12, CHEMR23 (Homo sapiens, UniProt Q99788); assay: FLIPR functional screen; assay type: cell-based; details: antagonist mode
T12 construct: Millipore

[13] = target: T13, CRF1 (Homo sapiens, UniProt P34998); assay: FLIPR functional screen; assay type: cell-based; details: antagonist mode
T13 construct: Millipore
T13 sequence (P34998 24-415): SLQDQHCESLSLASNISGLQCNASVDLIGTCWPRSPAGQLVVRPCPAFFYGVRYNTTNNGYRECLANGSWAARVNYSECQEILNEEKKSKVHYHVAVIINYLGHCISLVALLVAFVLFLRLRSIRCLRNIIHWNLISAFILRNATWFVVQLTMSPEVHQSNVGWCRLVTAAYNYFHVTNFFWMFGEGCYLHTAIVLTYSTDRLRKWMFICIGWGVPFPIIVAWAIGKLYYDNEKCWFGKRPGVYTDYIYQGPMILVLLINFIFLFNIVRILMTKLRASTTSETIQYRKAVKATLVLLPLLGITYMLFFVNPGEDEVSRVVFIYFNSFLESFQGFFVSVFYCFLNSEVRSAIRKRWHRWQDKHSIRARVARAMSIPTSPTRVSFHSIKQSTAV

[14] = tested on: CIA mouse; assay: Suppression of arthritis development in CIA; assay type: in vivo
Text: Suppression of arthritis development in CIA. DBA1/J mice were immunized with bCII/CFA at day 0 then boosted at day 21 with bCII/IFA. Arthritis development was monitored over the course of study. The arthritis score is as follows: 0=normal paw, score of 1=1-2 digit inflamed paws; score of 2=3 digits or 1-2 digit+wrist or ankle inflamed, score of 3=hand+more than 2 digits inflamed; and score of 4=multiple digits (3-4)+important wrist or ankle inflammation.
(A) Partial therapeutic evaluation of compounds. Active compound was given by oral dosing once daily at the dose indicated from day 20 after induction of antibodies to collagen II but before disease development. (B) Full therapeutic evaluation of compound. Active compound was given after disease was developed (from day 7 after the second immunization). (C) X-ray analysis of mouse paws from full therapeutic CIA study. X-ray score is the index of measurement of combination of osteopenia, bone erosion and new bone formation. (D) Representative X-ray radiographs.
Collagen induced arthritis model. Male DBA/1 mice were immunized intradermally at the base of the tail with 0.1 ml emulsion, containing 150 μg bovine type II collagen emulsified in Freund's complete adjuvant. Three weeks after 1st immunization, all mice were boosted with bovine type II collagen emulsified in Freund's incomplete adjuvant. The severity of arthritic symptoms in the paws of each mouse was graded according to Wood et al. in accordance with known techniques.
Several studies were performed in the mouse CIA model to evaluate anti-arthritic effects of ER-819924-01. Initially ER-819924-01 was studied in a partial therapeutic dosing regimen in which compounds were orally administered daily from day 20 (i.e. after induction of pathogenic anti-type II collagen antibodies, but before arthritis development). Arthritis score (measured as an inflammatory response index of inflamed paw) and body weight were monitored over two weeks. […] We also studied ER-819924-01 in a full therapeutic dosing regimen in which compounds were dosed after the induction of disease.

[15] = target: T14, Leukotriene, Cysteinyl CysLT1 (Homo sapiens, UniProt Q9Y271); assay: Competitive radioligand binding (MDS Pharma)
T14 construct: purchased MDS Pharma (outsourced assay)
T14 sequence (Q9Y271 whole entry): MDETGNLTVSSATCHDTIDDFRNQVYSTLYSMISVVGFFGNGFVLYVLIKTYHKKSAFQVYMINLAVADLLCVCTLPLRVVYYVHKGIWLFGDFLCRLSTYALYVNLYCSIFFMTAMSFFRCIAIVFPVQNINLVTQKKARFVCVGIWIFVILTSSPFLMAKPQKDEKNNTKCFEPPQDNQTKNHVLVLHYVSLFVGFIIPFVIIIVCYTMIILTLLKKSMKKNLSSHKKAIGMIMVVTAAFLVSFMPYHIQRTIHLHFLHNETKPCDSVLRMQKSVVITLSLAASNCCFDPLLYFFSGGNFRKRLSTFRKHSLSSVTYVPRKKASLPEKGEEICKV

[16] = target: T15, H1 (Homo sapiens, UniProt P35367); assay: FLIPR functional screen; assay type: cell-based; details: antagonist mode
T15 construct: Millipore
T15 sequence (P35367 whole entry): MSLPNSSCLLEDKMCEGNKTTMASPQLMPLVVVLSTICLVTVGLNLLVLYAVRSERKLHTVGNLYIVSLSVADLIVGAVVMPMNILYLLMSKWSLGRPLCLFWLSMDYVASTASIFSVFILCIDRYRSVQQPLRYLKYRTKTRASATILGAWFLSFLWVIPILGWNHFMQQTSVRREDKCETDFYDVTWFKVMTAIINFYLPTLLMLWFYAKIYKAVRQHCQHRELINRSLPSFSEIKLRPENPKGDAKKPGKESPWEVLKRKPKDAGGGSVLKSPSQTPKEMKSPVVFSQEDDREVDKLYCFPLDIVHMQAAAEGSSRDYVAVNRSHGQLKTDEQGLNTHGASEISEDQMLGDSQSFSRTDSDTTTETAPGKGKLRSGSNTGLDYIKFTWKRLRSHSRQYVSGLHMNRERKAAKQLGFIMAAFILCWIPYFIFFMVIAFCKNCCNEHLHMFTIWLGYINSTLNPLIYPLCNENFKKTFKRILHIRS

[17] = target: T16, M5 (Homo sapiens, UniProt P08912); assay: FLIPR functional screen; assay type: cell-based; details: antagonist mode
T16 construct: Millipore
T16 sequence (P08912 whole entry): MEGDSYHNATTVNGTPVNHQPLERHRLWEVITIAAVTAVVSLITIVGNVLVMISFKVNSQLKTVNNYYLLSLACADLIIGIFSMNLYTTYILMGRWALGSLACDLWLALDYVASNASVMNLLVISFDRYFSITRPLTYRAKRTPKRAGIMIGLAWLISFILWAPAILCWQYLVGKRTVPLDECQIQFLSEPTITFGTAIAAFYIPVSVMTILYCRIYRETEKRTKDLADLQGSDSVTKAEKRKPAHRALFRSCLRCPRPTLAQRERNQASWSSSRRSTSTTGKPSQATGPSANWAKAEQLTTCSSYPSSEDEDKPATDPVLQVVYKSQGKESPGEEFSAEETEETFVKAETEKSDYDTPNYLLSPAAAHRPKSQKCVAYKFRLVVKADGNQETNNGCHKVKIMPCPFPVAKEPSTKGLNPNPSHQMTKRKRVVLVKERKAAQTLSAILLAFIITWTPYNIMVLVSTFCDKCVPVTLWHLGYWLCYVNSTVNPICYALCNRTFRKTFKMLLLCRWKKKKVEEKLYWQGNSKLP

[18] = target: T17, P2Y1 (Homo sapiens, UniProt P47900); assay: FLIPR functional screen; assay type: cell-based; details: antagonist mode
T17 construct: Millipore
T17 sequence (P47900 whole entry, species assumed): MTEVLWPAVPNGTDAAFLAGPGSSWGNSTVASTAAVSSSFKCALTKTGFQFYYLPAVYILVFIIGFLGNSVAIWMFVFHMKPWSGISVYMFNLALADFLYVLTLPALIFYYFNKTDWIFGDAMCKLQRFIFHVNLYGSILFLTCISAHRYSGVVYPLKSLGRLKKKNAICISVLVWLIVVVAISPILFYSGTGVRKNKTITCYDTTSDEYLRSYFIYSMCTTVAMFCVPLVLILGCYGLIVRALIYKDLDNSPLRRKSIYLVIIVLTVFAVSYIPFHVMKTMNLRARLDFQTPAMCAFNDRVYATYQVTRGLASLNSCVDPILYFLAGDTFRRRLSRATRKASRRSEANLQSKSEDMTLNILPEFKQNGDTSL

[19] = target: T18, OX2 (Homo sapiens, UniProt O43614); assay: FLIPR functional screen; assay type: cell-based; details: antagonist mode
T18 construct: Millipore

[20] = target: T19, AT1 (Homo sapiens, UniProt P30556); assay: FLIPR functional screen; assay type: cell-based; details: antagonist mode
T19 construct: purchased Millipore (outsourced screen)

[21] = target: T20, CCR9 (Homo sapiens, UniProt P51686); assay: FLIPR functional screen; assay type: cell-based; details: antagonist mode
T20 construct: Millipore

[22] = target: T21, VPAC1 (Homo sapiens, UniProt P32241); assay: FLIPR functional screen; assay type: cell-based; details: antagonist mode
T21 construct: Millipore

[23] = target: T22, PAR2 (Homo sapiens, UniProt P55085); assay: FLIPR functional screen; assay type: cell-based; details: antagonist mode
T22 construct: Millipore
T22 sequence (P55085 26-397): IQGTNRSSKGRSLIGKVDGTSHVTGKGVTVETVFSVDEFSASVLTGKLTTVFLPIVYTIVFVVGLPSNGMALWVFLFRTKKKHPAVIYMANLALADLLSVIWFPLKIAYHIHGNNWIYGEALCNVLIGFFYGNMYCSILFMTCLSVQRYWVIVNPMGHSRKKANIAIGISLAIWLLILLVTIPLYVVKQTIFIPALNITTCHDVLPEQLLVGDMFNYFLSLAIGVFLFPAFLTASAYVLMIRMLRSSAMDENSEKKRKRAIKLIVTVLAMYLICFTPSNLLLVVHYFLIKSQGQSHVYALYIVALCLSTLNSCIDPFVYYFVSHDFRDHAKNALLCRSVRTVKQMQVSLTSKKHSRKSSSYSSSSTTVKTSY

[24] = target: T23, NK2 (Homo sapiens, UniProt P21452); assay: FLIPR functional screen; assay type: cell-based; details: antagonist mode
T23 construct: Millipore

[25] = target: T24, EP1 (Homo sapiens, UniProt P34995); assay: FLIPR functional screen; assay type: cell-based; details: antagonist mode
T24 construct: Millipore

[26] = target: T25, Y2 (Homo sapiens, UniProt P49146); assay: FLIPR functional screen; assay type: cell-based; details: antagonist mode
T25 construct: Millipore

[27] = target: T26, PAC1 (Homo sapiens, UniProt P41586); assay: FLIPR functional screen; assay type: cell-based; details: antagonist mode
T26 construct: Millipore

[28] = target: T27, GPR54 (Homo sapiens, UniProt Q969F8); assay: FLIPR functional screen; assay type: cell-based; details: antagonist mode
T27 construct: Millipore

[29] = target: T28, FPR1 (Homo sapiens, UniProt P21462); assay: FLIPR functional screen; assay type: cell-based; details: antagonist mode
T28 construct: Millipore

[30] = target: T29, GPR68 (Homo sapiens, UniProt Q15743); assay: FLIPR functional screen; assay type: cell-based; details: antagonist mode
T29 construct: Millipore
T29 sequence (Q15743 whole entry, species assumed): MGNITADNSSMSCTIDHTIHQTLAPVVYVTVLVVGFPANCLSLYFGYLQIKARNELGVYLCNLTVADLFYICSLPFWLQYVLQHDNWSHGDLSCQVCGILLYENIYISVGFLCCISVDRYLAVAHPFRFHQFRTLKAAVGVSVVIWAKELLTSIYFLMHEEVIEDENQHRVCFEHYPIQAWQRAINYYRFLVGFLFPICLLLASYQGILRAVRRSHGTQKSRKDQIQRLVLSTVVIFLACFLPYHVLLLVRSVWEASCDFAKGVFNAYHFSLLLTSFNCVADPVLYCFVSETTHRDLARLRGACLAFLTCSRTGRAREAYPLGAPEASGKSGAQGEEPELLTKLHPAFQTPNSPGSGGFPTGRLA

T1 sequence (Q9Y271 whole entry, species assumed): as the sequence (Q9Y271 whole entry) above

SMILES: CCN1C(=O)N2Cc3cc(OC)cc(OC)c3[C@@H](C)C=C2C12CCN(Cc1cccn1C)CC2 [ER-819924-01]
- inhibition at 1 µM [1]: -1.6%
- inhibition at 1 µM [2]: -22.7%
- inhibition at 1 µM [3]: 0.6%
- % INHIBITION ([4]; CONC. 0.1 μm): −3%
- % INHIBITION ([4]; CONC. 1 μm): 1%
- inhibition at 1 µM [5]: 9%
- inhibition at 1 µM [6]: 14%
- inhibition at 1 µM [7]: 5.4%
- inhibition at 1 µM [8]: 7.1%
- % INHIBITION ([9]; CONC. 0.1 μm): −3%
- % INHIBITION ([9]; CONC. 1 μm): −14%
- inhibition at 1 µM [10]: 2.2%
- inhibition at 1 µM [11]: 3.3%
- inhibition at 1 µM [12]: -3.2%
- inhibition at 1 µM [13]: 3.9%
- X-ray score ([14]; 30 mg/kg, separate study): significantly improved X-ray score
- ED50 ([14]; Mus musculus, 480 h, partial therapeutic dosing, oral daily from day 20): ~10 mg/kg
- arthritis development under full therapeutic dosing ([14]; dosed after induction of disease, 10 mg/kg): effectively prevented further arthritis development
- % INHIBITION ([15]; CONC. 0.1 μm): −1%
- % INHIBITION ([15]; CONC. 1 μm): −5%
- inhibition at 1 µM [16]: -39.3%
- inhibition at 1 µM [17]: 10.1%
- inhibition at 1 µM [18]: -37.5%
- inhibition at 1 µM [19]: 8.8%
- inhibition at 1 µM [20]: -1.5%
- inhibition at 1 µM [21]: -9.1%
- inhibition at 1 µM [22]: 4.6%
- inhibition at 1 µM [23]: -0.8%
- inhibition at 1 µM [24]: 2.1%
- inhibition at 1 µM [25]: -2%
- inhibition at 1 µM [26]: -1%
- inhibition at 1 µM [27]: 4.1%
- inhibition at 1 µM [28]: -0.4%
- inhibition at 1 µM [29]: 8%
- inhibition at 1 µM [30]: 13.4%
